Laboratory results taken from US20240237646A1, “METHODS OF DECREASING PLANT INJURY AND IMPROVING CROP YIELD” (priority 2023, published 2024).

Tests used:
[1] = test system: creeping bentgrass (Agrostis palustris) turf; details: 6 applications every two weeks, 8 visual ratings combined, trinexapac-ethyl 514, paclobutrazol 280, prohexadione-calcium 154, flurprimidol 15 g ai/ha, B Sure 19,091 ml/ha in mixtures
Text: Each plant growth regulator (PGR) combination was applied in 2 gallons of water per 1,000 square feet and applications were made 6 times with application intervals every two weeks. Visual injury was rated 8 times between June 8th and August 11th on a percent scale from 0 to 100 where 0 equals no visual response and 100 equals complete plant death.

[2] = test system: genetically modified (GM) soybeans (Enlist E3® soybeans); test: Four field studies, B Sure + lactofen or 2,4-D in GM soybeans (yield); type: in vivo, Glycine max; details: for Yield (bushels/acre): lactofen 210 g ai/ha, 2,4-D choline salt 2,527 g ai/ha, check 62.2
Procedure: Four field studies were conducted in 2023 in the states of Ohio, Nebraska, Indiana, and Illinois to determine the influence of the “HYT plant ameliorant” B Sure® at 1,170 mls/ha on soybean (Glycine max) yield when applied in combinations with the herbicides lactofen at 210 g ai/ha and 2,4-D (as its choline salt) at 2,527 g ai/ha on genetically modified (GM) soybeans (Enlist E3® soybeans) created to tolerate applications of 2,4-D, glufosinate, and glyphosate. Treatments were applied using a water carrier with crop oil concentrate added to all treatments at 1% v/v and ammonium sulfate at 2.24 kg/ha added to herbicide containing treatments. Yields were adjusted to constant moisture and recorded in bushels/acre. […] All plots were maintained weed free.

[3] = test system: genetically modified (GMO) soybeans engineered to resist 2,4-D; test: Study, B Sure + herbicides in GMO soybeans (canopy rating); type: in vivo, soybean; details: lactofen 218, 2,4-D choline 1064, chlorimuron 13 g ai/ha; for Canopy rating relative to % ground cover: GMO soybeans V3-R1, B Sure 1 pt/A in mixtures, larger = greater crop vigor; for % Increase in soybean canopy measure with B Sure ® added: herbicide + B Sure 1 pt/A compared to the herbicide applied alone
Text: Treatments included 1) B Sure® 1 pt/A; 2) Lactofen 218 g ai/ha; 3) Lactofen 218 g ai/ha+B Sure® 1 pt/A; 4) 2,4-D choline 1064 g ai/ha; 5) 2,4-D choline 1064 g ai/ha+B Sure® 1 pt/A; 6) chlorimuron 13 g ai/ha; 7) chlorimuron 13 g ai/ha+B Sure® 1 pt/A. Adjuvants applied varied by treatment and were consistent with product label recommendations. A preemergence herbicide was applied to all treatments in order to reduce competition from weed species that would increase variability in the study. A canopy rating was made which evaluated the % ground cover differences of the soybeans associated with the various treatments. In these measurements, the larger ground cover number represents a greater amount of soybean leaf tissue which represents greater crop vigor and overall soybean health.

soybeans (Glycine max) = details: fomesafen 350 g ai/ha alone
Text: The study was arranged in a randomized complete block design with 6 replicates in conventionally tilled soybeans (Glycine max).
Herbicides were applied in a water carrier of 20 gallons per acre and treatments were applied at first flower (V5/R1). All fomesafen treatments contained an adjuvant system of 1% v/v crop oil concentrate and 2.5% v/v urea ammonium nitrate as is consistent with product label instructions.

[4] = test system: creeping bentgrass (Agrostis stolonifera); test: Field study, B Sure + PCNB on creeping bentgrass (visual injury); details: PCNB 227 g ai/1,000 sq ft, B Sure 6 fl oz/1,000 sq ft in the mixture
Text: PCNB was applied at 227 g ai/per 1,000 square feet. […] Treatments were applied on July 14th using an application volume of 2 gallons per 1,000 square feet. Creeping bentgrass injury ratings were made five times corresponding to 3, 7, 10, 14 and 28 days after application (DAA).

[5] = test system: cotton (Gossypium hirsutum); test: Six field studies, B Sure + trifloxysulfuron in cotton (visual injury); type: in vivo; details: trifloxysulfuron 8 g ai/ha alone, rated 2 to 3 weeks after application
Text: The studies were arranged in a randomized complete block design with 4 replicates in conventionally tilled cotton. Evaluations were combined over locations and plots were maintained weed free over the duration of the trial.
Herbicides were applied in a water carrier to cotton at three separate stages of growth: 1) cotyledon-2 leaf; 2) 3-4 leaf; and 3) 5 leaf or greater. All trifloxysulfuron treatments contained a nonionic surfactant at 0.25% v/v as is consistent with product label instructions. Treatments included in the trial were the following: 1) trifloxysulfuron 8 g ai/ha-cotyledon-2 leaf cotton; 2) trifloxysulfuron 8 g ai/ha+B Sure® 1,170 mls/ha-cotyledon-2 leaf cotton; 3) trifloxysulfuron 8 g ai/ha+B Sure® 2 pint/acre-cotyledon-2 leaf cotton; 4) trifloxysulfuron 8 g ai/ha-3-4 leaf cotton, 5) trifloxysulfuron 8 g ai/ha+B Sure® 1,170 mls/ha-3-4 leaf cotton; 6) trifloxysulfuron 8 g ai/ha+B Sure® 2,340 mls/ha-3-4 leaf cotton; 7) trifloxysulfuron 8 g ai/ha-5 leaf or greater cotton, 8) trifloxysulfuron 8 g ai/ha+B Sure® 1,170 mls/ha-5 leaf or greater cotton; 9) trifloxysulfuron 8 g ai/ha+B Sure® 2, 340 mls/ha-5 leaf or greater cotton; 10) Check.

Molecule: CC(C)(C)[C@@H](O)[C@@H](Cc1ccc(Cl)cc1)n1cncn1 (racemic) [Paclobutrazol]
- % Phytotoxicity [1]: 10%

Molecule: C[N+](C)(C)CCO.O=C([O-])COc1ccc(Cl)cc1Cl [2,4-D Choline, 2,4-D choline salt]
- soybean yield increase over the check ([2]; B Sure 1,170 mls/ha, lactofen 210 g ai/ha, 2,4-D 2,527 g ai/ha): 3.1 bushels/acre
- Yield (bushels/acre) ([2]; B Sure 1,170 mls/ha): 65.3 bushels/acre
- Canopy rating relative to % ground cover [3]: 6.18
- % Increase in soybean canopy measure with B Sure ® added [3]: 12.9%

Molecule: COc1cc(Cl)nc(NC(=O)NS(=O)(=O)c2ccccc2C(=O)O)n1 [Chlorimuron, chlorimuron]
- Canopy rating relative to % ground cover [3]: 6.25
- % Increase in soybean canopy measure with B Sure ® added [3]: 10.9%

Molecule: CS(=O)(=O)NC(=O)c1cc(Oc2ccc(C(F)(F)F)cc2Cl)ccc1[N+](=O)[O-] [Fomesafen, fomesafen]
- Soybean Yield (% increase over untreated check) (soybeans (Glycine max)): 4.6%
- % Injury (soybeans (Glycine max); soybean, applied at V5/R1, visual scale 0-100): 7%

Molecule: CCOC(=O)C(C)OC(=O)c1cc(Oc2ccc(C(F)(F)F)cc2Cl)ccc1[N+](=O)[O-] (centres unmarked) [Lactofen, lactofen]
- Yield (bushels/acre) ([2]; B Sure 1,170 mls/ha): 61.5 bushels/acre
- soybean yield reduction over the untreated check ([2]; lactofen 210 g ai/ha): 0.7 bushels/acre
- Canopy rating relative to % ground cover [3]: 2.99
- % Increase in soybean canopy measure with B Sure ® added [3]: 7.4%

Molecule: O=[N+]([O-])c1c(Cl)c(Cl)c(Cl)c(Cl)c1Cl [PCNB, pentachloronitrobenzene]
- % Injury 3 DAA ([4]; 3 days after application): 20%
- % Injury 7 DAA ([4]; 7 days after application): 100%
- % Injury 10 DAA ([4]; 10 days after application): 100%
- % Injury 14 DAA ([4]; 14 days after application): 100%
- % Injury 28 DAA ([4]; 28 days after application (end of trial)): ~100%

Molecule: COc1cc(OC)nc(NC(=O)NS(=O)(=O)c2ncccc2OCC(F)(F)F)n1 [Trifloxysulfuron, trifloxysulfuron]
- % Injury ([5]; 3-4 leaf): 15%
- % Injury ([5]; 5+ leaf): 5%
- % Injury ([5]; Cotyledon-2 leaf): 18%

Molecule: CCOC(=O)C1CC(=O)C(=C(O)C2CC2)C(=O)C1 (centres unmarked) [Trinexapac-ethyl]
- % Phytotoxicity [1]: 10%

Molecule: Prohexadione-calcium
- % Phytotoxicity [1]: 12%
